Measured values as given in patent US20220274968A1, “Oxazole And Oxadiazole Derivatives Useful As Agonists Of Free Fatty Acid Receptor 1” (GBiotech S.à.r.l., priority 2019, published 2022).

System: C57BI/6N male mice
Assay: Oral glucose tolerance test (OGTT) in C57BI/6N male mice
Type: in vivo
Settings: single peroral dose 60 min before glucose 2 g/kg; Z1558775684 20 mg/kg, Metformin 300 mg/kg; compared with the Vehicle-treated group; 5 mice per group
Experimental: Values are expressed as means of 5 animals tested. For glucose tolerance test (GTT), mice were orally treated with glucose at dose of 2 g/kg at the dose volume of 10 ml/kg after a 6-hour fasting. Glucose measurements were performed immediately before compound treatment (−60 min), at −30 min, 0 min (before glucose administration), and then 15, 30, 60, 90 and 120 min after glucose administration.
EXAMPLE 87: OGTT TESTING IN C57BI/6N MALE MICE
Each experimental group consisted of five male C57BI/6N mice. Animals were dosed once perorally with 20 mg/kg of tested compound Z1558775684. A control group was dosed with vehicle on the same schedule. Metformin at the dosage of 300 mg/kg was used as reference compound.
Compound Z1558775684 was dissolved/suspended in DMSO-PEG400-physiological saline (20%:50%:30%) at concentration 4 mg/ml. Metformin was dissolved in the same vehicle at concentration 60 mg/ml. The test samples were administered per os in the volume corresponding to 5 ml/kg body weight.
Single doses of test samples were administered 60 min before glucose treatment at 3 p.m.
The blood glucose level was measured after 6-hour fasting using Call Plus glucometer and specific test strips. Blood was obtained from the tail vein by incision of the tail tip, 5-6 μl of blood was used for each assay. […]

## CCc1nc(N)nc(SCc2ncc(-c3cccc(Cl)c3)o2)n1 [Compound Z1558775684, 4-({[5-(3-chlorophenyl)-1,3-oxazol-2-yl]methyl}sulfanyl)-6-ethyl-1,3,5-triazin-2-amine]
  glucose level during oral glucose tolerance test (OGTT): Statistically significant decrease in glucose level

## CN(C)C(=N)N=C(N)N [Metformin]
  glucose level during oral glucose tolerance test (OGTT): Statistically significant decrease in glucose level
